{
  "source": "patent US6632449B2",
  "about": "“Compositions and kits comprising a defined boron compound and methods of their preparation” (The Procter & Gamble Co., priority 2001, dated 2003)",
  "assay": "physchem",
  "conditions": "saturated aqueous solution of the boron compound",
  "text": "The pKa of the boron compound utilized herein may be determined as follows. […] Using an auto titrator, titrate the solution according to standard methods. The pKa of the boron compound is the pH at which the inflection point occurs in the resulting titration curve.",
  "data": [
    {"smiles": "OB(O)O", "note": "[boric acid]", "values": [
      {"measurement": "pKa", "result": "~9.2"}
    ]}
  ]
}
